Experimental data reported in patent publication US20260174680A1, “MAMMARY GLAND TISSUE HEALTH MAINTENANCE AGENT HAVING GABA AS ACTIVE INGREDIENT” (SANWA SHURUI CO., LTD., priority 2022, published 2026).

How the values were obtained:
mammary gland tissue [1] = settings: equol intraperitoneally, with estradiol administered (Non-Patent Literature 1); cited from earlier work
mammary gland tissue [2] = assay: Animal experiment: E2-induced mammary gland tissue dysplasia and invasion in scid mice; assay type: in vivo; settings: 25 days
Procedure: Ten-week-old Scid mice were intraperitoneally administered with 6 μg of E2 per day for 25 days, and were simultaneously intraperitoneally administered with 6 μg of Equol per day and/or were intraperitoneally administered with 0.5 mg (low) or 5 mg (high) of GABA per day. The fourth mammary gland was sampled 24 hours after the final administration, and photographs are shown of tissue observation by hematoxylin and eosin (H&E) staining (upper row) and Elastica van Gieson (EVG) staining (lower row).
This mouse model system that develops early stage breast cancer is an experimental system developed by the present inventors, and a system in which scid mice, which are a mouse strain with reduced DNA repair ability, are used to be administered estradiol (E2) intraperitoneally for […] to induce mammary gland tissue dysplasia. […] The present invention also uses this experimental system to evaluate the effects of GABA or the combined use of GABA and equol.
Ten-week-old scid mice were intraperitoneally administered PBS as a negative control group, 6 μg/day of E2 as a positive control group, 6 μg of E2+6 μg/day of equol (Eq) in experimental group 1, 6 μg of E2+0.5 mg/day of GABA in experimental group 2, 6 μg of E2+5 mg/day of GABA in experimental group 3, 6 μg of E 2+6 μg of Eq+0.5 mg of GABA in experimental group 4, and 6 μg of E 2+6 μg of Eq+5 mg of GABA in experimental group 5, with six mice in each group, every morning for 25 days. 24 hours after the final administration, the fourth mammary gland was sampled, and the tissue was observed by hematoxylin and eosin (H&E) staining and Elastica van Gieson (EVG) staining.
In addition, the frequency of occurrence of dysplasia in sections of the mammary gland tissue was evaluated.
Mouse (female): C. B-17/Icr-scid/scid Jel was purchased from CLEA Japan.
The E2 used was E2758 manufactured by SIGMA, the Equol (Eq) used was SML2147 manufactured by SIGMA, and the GABA used was A5835 manufactured by SIGMA.

MCF7 (ATCC HTB-22) cells = assay: Cell test: E2-induced DNA double-strand break signals in MCF7 cells (P-Histone H2AX immunostaining); assay type: cell-based; settings: 4 hours
Procedure: After MCF 7 (ATCC HTB-22) cells were cultured, and the medium was removed, 200 μL of PBS adjusted to E2-free, 10 nM of E2, or 10 nM of E2+0.3 μg/mL to 1.1 μg/mL of GABA was added to each well, and the cells were incubated at 37° C. and 5% of CO2 for 4 hours. The cells were visualized by adding a primary histone antibody, and the DNA double-strand break signals per cell were measured by observation under a microscope.
The cultured cells used were MCF7 (ATCC HTB-22). MCF7 cells were cultured for 2 days to 3 days in phenol red-free RPMI 1640 medium containing 10% of fetal bovine serum and 1 nM of E2.
The cells were passaged into phenol red-free RPMI medium containing 10% of charcoal-stripped serum (Charcoal-Stripped FBS, Thermo Fisher) and 1 nM of E 2, and seeded into an 8-well plate (SCS-N28 MAS-Coat, Matsunami) at 400 μL/well. After 1 day to 2 days, the medium on the 8-well plate was removed and replaced with serum-free, phenol red-free RPMI medium, and the cells were starved by culturing for 1 day to align the cell cycle to the G1 phase. […]
The cells were observed under a microscope, the DNA double-strand break signals per cell were measured, and statistical analysis was performed using the Mann-Whitney U-test, with p<0.05 being considered to indicate a significant difference. […]
For each experiment section, DNA double-strand break signals were counted in 100 cells.

[3] = experimental groups 1 to 5: Eq or GABA added to 6 μg/day E2 i.p.

invasion in mammary gland tissue sections (H&E and EVG staining) (mammary gland tissue [2]; positive control: E2 only, 6 μg/day i.p.) | SMILES | mammary gland tissue dysplasia (mammary gland tissue [1]) | frequency of occurrence of dysplasia (average of E2-only positive control taken as 100%) (mammary gland tissue [2]; experimental group 1: 6 μg E2 + 6 μg/day equol i.p., negative control 16%) | invasion in mammary gland tissue sections (H&E and EVG staining) (mammary gland tissue [2]; [3]) | DNA damage (DNA double-strand break signals per cell) (MCF7 (ATCC HTB-22) cells; 10 nM E2 + 1.1 μg/mL GABA, Mann-Whitney U-test, p<0.05) | number of DNA damages (DNA double-strand break signals per cell) (MCF7 (ATCC HTB-22) cells; 10 nM E2 + 0.3 to 1.1 μg/mL GABA) | frequency of occurrence of dysplasia (average of E2-only positive control taken as 100%) (mammary gland tissue [2]; experimental group 2: 6 μg E2 + 0.5 mg/day GABA i.p.) | frequency of occurrence of dysplasia (average of E2-only positive control taken as 100%) (mammary gland tissue [2]; experimental group 3: 6 μg E2 + 5 mg/day GABA i.p.)
– | Oc1ccc([C@H]2COc3cc(O)ccc3C2)cc1 [Eq, equol, reference compound] | mammary gland tissue dysplasia was inhibited | approximately 58% | no invasion was observed | – | – | – | –
– | NCCCC(=O)O [GABA, γ-amino butyric acid] | – | – | no invasion was observed | significantly reduced DNA damage | tended to reduce the number of DNA damages | 44% | 37%
showed invasion | C[C@]12CC[C@@H]3c4ccc(O)cc4CC[C@H]3[C@@H]1CC[C@@H]2O [E2, estradiol, reference compound] | – | – | – | – | – | – | –
